Values after ≈ are worked out from the molar mass of the structure shown.
Settings: not given

Structure (SMILES) | logP | solubility
BrCBr | 1.7 | –
O=C(O)C1C2CCC(O2)C1C(=O)O (stereo not given) | 1.91 | –
O=C1C2=C(CCCC2)C(=O)N1c1ccc(Cl)cc1 | 3.32 | –
N#CCCl | – | 1320 mM (≈ 100 mg/mL)
O=C(O)c1nc(Cl)ccc1Cl | 1.06 | –
CC1CCC2C(C)C(OC3OC(C(=O)O)C(O)C(O)C3O)OC3OC4(C)CCC1C32OO4 (stereo not given) | 1.08 | –

Continued, in another order:

logP | Structure (SMILES) | solubility
3.63 | Cc1cc(Br)cc(C)c1C#[N+][O-] | –
4.63 | CCCCOC(=O)c1ccccc1O | –
5.65 | CCCCCCCCC | –
1.48 | Cc1ccc2oc(N(N)CCC#N)nc2c1 | –
0.52 | Nc1ccc2nc(S(N)(=O)=O)sc2c1 | –
-0.07 | Cc1cn(C2CC(O)C(CO)O2)c(=O)[nH]c1=S (stereo not given) | –
4.8 | c1ccc2sc(SN(C3CCCCC3)C3CCCCC3)nc2c1 | 0.000163 mM (≈ 5.64e-05 mg/mL)
1.72 | N#CCCN(N)c1nc2cc(C(F)(F)F)ccc2o1 | –
0.09 | Cc1cn([C@H]2C=C[C@@H](CO)O2)c(=O)[nH]c1=S | –
0.39 | CCOCCOCCOCC | –
3.04 | OCc1c2ccccc2cc2ccccc12 | –
-2.16 | Nc1ccc(S(=O)(=O)O)cc1 | –
3.8 | CCCOC(=O)c1ccccc1O | –
2.3 | CCCCCCN1CC(C(=O)OC)CC1=O (stereo not given) | –

Same assay, conditions: 20 °C

Structure (SMILES) | solubility
CC(C)(C)C1CCC(O)CC1 (stereo not given) | 0.64 mM (≈ 0.1 mg/mL)
CCNc1nc(NCC)nc(OC)n1 | 16.2 mM (≈ 3.2 mg/mL)
COc1c(Cl)cc(Cl)cc1Cl | 0.0473 mM (≈ 0.01 mg/mL)
CC(C)(CO)[N+](=O)[O-] | 29400 mM (≈ 3500 mg/mL)
CCOP(=S)(OCC)Oc1nc(Cl)n(C(C)C)n1 | 0.324 mM (≈ 0.102 mg/mL)
Clc1ccc(-c2ccc(Cl)cc2)cc1 | 0.000278 mM (≈ 6.2e-05 mg/mL)

Same assay, conditions: 23 °C

Structure (SMILES) | solubility
CN(N=O)C(N)=O | 140 mM (≈ 14.4 mg/mL)

Same assay, conditions: 23.0 °C

log10 OH rate constant (cm³/molecule/s) | Structure (SMILES)
-10.4 | CCC(C)OCOC(C)CC (stereo not given)
-11.4 | CCOC(=O)C(C)O (stereo not given)
-11 | CC(=O)C(C)O (stereo not given)
-12 | CC(=O)C(C)(C)O
-11.1 | CCC(=O)CO

Same assay, conditions: 25 °C

Structure (SMILES) | solubility
BrC1CCCCC1 | 5.08 mM (≈ 0.828 mg/mL)
Nc1ccc(-c2ccc(N)c(Cl)c2)cc1Cl | 0.0122 mM (≈ 0.0031 mg/mL)
Cc1ccc(O)c(C)c1 | 64.4 mM (≈ 7.87 mg/mL)
O=C(O)CBr | 12600 mM (≈ 1750 mg/mL)
CON(C)C(=O)Nc1ccc(Cl)c(Cl)c1 | 0.301 mM (≈ 0.075 mg/mL)
Oc1cc(Cl)c(Cl)cc1Cl | 6.08 mM (≈ 1.2 mg/mL)
CC(=O)N(C)N=O | 170 mM (≈ 17.4 mg/mL)
ClC1=C(Cl)C2(Cl)C3C(Cl)C=CC3C1(Cl)C2(Cl)Cl (stereo not given) | 0.000482 mM (≈ 0.00018 mg/mL)
CCS(=O)(=O)c1cccnc1S(=O)(=O)NC(=O)Nc1nc(OC)cc(OC)n1 | < 0.0232 mM
FCCl | 151 mM (≈ 10.4 mg/mL)

Second part, the compound after the results:

solubility | Structure (SMILES)
384 mM (≈ 50 mg/mL) | c1ccc2cnncc2c1
252 mM (≈ 50 mg/mL) | COc1ccccc1OCC(O)CO (stereo not given)
0.000227 mM (≈ 5.5e-05 mg/mL) | Cc1ccc2cc3ccc4ccccc4c3cc2c1
9.14 mM (≈ 1.3 mg/mL) | C=C(C)C(=O)OCC(C)C
2.17e-05 mM (≈ 6.74e-06 mg/mL) | C[Si](C)(C)O[Si](C)(C)O[Si](C)(C)O[Si](C)(C)C
0.016 mM (≈ 0.00389 mg/mL) | O=[N+]([O-])c1ccc(N=Nc2ccc(O)cc2)cc1
104 mM (≈ 26 mg/mL) | CCC(CO)(CO)COCC(CC)(CO)CO
99.9 mM (≈ 21 mg/mL) | O=C(O)c1ccc(C(=O)O)c(C(=O)O)c1
0.00398 mM (≈ 0.00102 mg/mL) | c1ccc2nc(-c3ccc4ccccc4n3)ccc2c1
0.00082 mM (≈ 0.000115 mg/mL) | CCCCCC1CCCC1
50.3 mM (≈ 7 mg/mL) | O=C(O)c1ccc[n+]([O-])c1
0.879 mM (≈ 0.169 mg/mL) | CC(=O)C=CC1=C(C)CCCC1(C)C

Same assay, conditions: 25.0 °C

Structure (SMILES) | log10 OH rate constant (cm³/molecule/s)
C=COC(C)=O | -10.6
ClCCCCl | -12.1
CCCCCCBr | -11.2
CC(C)Cl | -12
FC(F)(F)I | -13.3
FC(F)C(F)(F)C(F)(F)C(F)F | -14.3
CC(C)CCO | -10.9
CCCN(CCC)C(=O)SCC | -10.5
Cc1cc2ccccc2cc1C | -10.2
C/C(C=O)=C\C=C\C=O | -9.93
CC(C)Br | -12.1
FC(F)=C(F)C(F)(F)F | -11.7
Cc1ccc(C(C)(C)C)cc1 | -10.9
CCCCOCOCCCC | -10.5
BrCBr | -12.9
Clc1ccc(-c2ccc(Cl)cc2)cc1 | -11.7
c1ccc(Nc2ccccc2)cc1 | -9.71
FC(F)(F)CCC(F)(F)F | -14.1
Clc1c(Cl)c(Cl)c(Cl)c(Cl)c1Cl | -13.6
FC(F)OC(F)F | -14.5

Same assay, conditions: 27.0 °C

log10 OH rate constant (cm³/molecule/s) | Structure (SMILES)
-9.81 | Cc1ccc(O)c(O)c1
-10.7 | CCC(=O)N(C)C

Structure (SMILES) | log10 OH rate constant (cm³/molecule/s)
O=C1C=CC(=O)C=C1 | -11.3

Same assay, conditions: 28 °C

Structure (SMILES) | solubility
O=C(O)Cc1c(Cl)ccc(Cl)c1Cl | 0.835 mM (≈ 0.2 mg/mL)

Same assay, conditions: 30 °C

Structure (SMILES) | solubility
BrCBr | 68.5 mM (≈ 11.9 mg/mL)

Reference: the OPERA property sets (Mansouri et al. 2018)
